The source made the active and inactive calls. How the calls were made is not given here.

The first test deals with S. Typhi PhoP-regulated promoter GFP reporter, 4 h. Description: PhoP regulon inhibitors in S. Typhi, SAR follow-up, purified and synthesized compounds, round 3 (AID 434995).
Conditions: not given
For the compound `O=C(Nc1ccc(Cl)cc1)N1CCCN(Cc2ccccc2Br)C1`, the IC50 is 116 µM.

Consider `O=C(Nc1ccc(I)cc1)N1CCCN(Cc2ccccc2F)C1`, for which the concentration for half-maximal inhibition (IC50) was 81.6 µM.

`S=C(NCCc1ccc(Cl)cc1)Nc1ccncc1`: the half-maximal inhibitory concentration (IC50) is 20.7 µM.

Tested on in the next test: not listed separately
The description is as above. The following applies: S. Typhi PhoP-regulated promoter GFP reporter, 4 h; at 75 µM (top of the series).
As to `O=C(Nc1ccc(Cl)cc1)N1CCCN(Cc2ccc(Br)cc2)C1`, the inhibition is -28.5% (inactive).

The test is the same for the next values; noted with them: S. Typhi PhoP-regulated promoter GFP reporter, 4 h; at 150 µM (top of the series).
On to `N#Cc1ccccc1NC(=S)NCc1ccc(Cl)cc1`, for which the inhibition was -27.4% (inactive).

As for `O=C(Nc1cccc(C(F)(F)F)c1)N1CCCN(Cc2ccccc2F)C1`, the inhibition is 8.86% (inactive).

In the case of `O=C(Nc1cccc(F)c1)N1CCCN(Cc2ccccc2F)C1`, the inhibition is 25.8% (inactive).

Turning to `Cc1ccc(NC(=O)N2CCCN(Cc3ccccc3F)C2)cc1`, the inhibition was -12.7% (inactive).

With `O=C(Nc1cccc(I)c1)N1CCCN(Cc2ccccc2F)C1`, the inhibition is -16.5% (inactive).

As for `COc1ccccc1CNC(=S)Nc1ccncc1`, the inhibition is 11.4% (inactive).

Turning to `Cc1ccccc1CNC(=S)Nc1ccncc1`, the inhibition was -37.8% (inactive).

Regarding `N#Cc1ccc(NC(=S)NCc2ccc(Cl)cc2)cc1`, the inhibition was -25.7% (inactive).

For orientation: IC50 means the concentration at which inhibition is half-maximal. Usually inhibition stands for the relative decrease from the control value, in per cent.

These data come from PubChem BioAssay AID434995 (Southern Research Specialized Biocontainment Screening …, 2010).
